Assay results published in patent US4278671A, “7-[2-(2-Aminothiazol-4-yl)-2-(syn)-methoxyiminoacetamido] cephalosporins” (Takeda Chemical Industries, Ltd., priority 1976, dated 1981).
Converted amounts (≈) assume the structure as drawn.

Key:
E. coli NIHJ = assay: minimal inhibitory concentration against E. coli NIHJ; format: cell-based; conditions: Escherichia coli
E. coli 0-111 = assay: minimal inhibitory concentration against E. coli 0-111; format: cell-based, Escherichia coli; conditions: Escherichia coli, 0111; E. coli 0-111; read-out: minimal inhibitory concentration
E. coli T-7 = assay: minimal inhibitory concentration against E. coli T-7; format: cell-based; conditions: Escherichia coli, T7
Klebsiella pneumoniae DT = assay: minimal inhibitory concentration against K. pneumoniae DT; format: cell-based; conditions: Klebsiella pneumoniae; K. pneumoniae DT; read-out: minimal inhibitory concentration
[1] = system: Klebsiella pneumoniae GN 3835; assay: minimal inhibitory concentration against K. pneumoniae GN 3835; format: cell-based; conditions: Klebsiella pneumoniae, GN3835; K. pneumoniae GN 3835; read-out: minimal inhibitory concentration
[2] = system: Serratia marcescens IFO 12648; assay: minimal inhibitory concentration against Serr. marcescens IFO 12648; format: cell-based; conditions: Serratia marcescens, IFO12648; Serr. marcescens IFO 12648; read-out: minimal inhibitory concentration
Serratia TN 0024 = assay: minimal inhibitory concentration against Serratia TN 0024; format: cell-based; conditions: TN0024; Serratia TN 0024; read-out: minimal inhibitory concentration
[3] = system: Proteus vulgaris IFO 3988; assay: minimal inhibitory concentration against P. vulgaris IFO 3988; format: cell-based; conditions: Proteus vulgaris, IFO3988; P. vulgaris IFO 3988; read-out: minimal inhibitory concentration
P. vulgaris GN 4413 = assay: minimal inhibitory concentration against P. vulgaris GN 4413; format: cell-based; conditions: Proteus vulgaris, GN4413
[4] = system: Proteus mirabilis GN 4359; assay: minimal inhibitory concentration against P. mirabilis GN 4359; format: cell-based; conditions: Proteus mirabilis, GN4359; P. mirabilis GN 4359; read-out: minimal inhibitory concentration
[5] = system: Proteus morganii IFO 3168; assay: minimal inhibitory concentration against P. morganii IFO 3168; format: cell-based; conditions: Morganella morganii, IFO3168; P. morganii IFO 3168; read-out: minimal inhibitory concentration
P. rettgeri 8(TN0336) = assay: minimal inhibitory concentration against P. rettgeri 8 (TN0336); format: cell-based, Proteus rettgeri; conditions: Providencia rettgeri; P. rettgeri 8(TN0336); read-out: minimal inhibitory concentration
Proteus rettgeri GN 4733 = assay: minimal inhibitory concentration against P. rettgeri GN 4733; format: cell-based; conditions: Providencia rettgeri, GN4733; P. rettgeri GN 4733; read-out: minimal inhibitory concentration
[6] = system: Citrobacter freundii GN 99; assay: minimal inhibitory concentration against Cit. freundii GN 99; format: cell-based; conditions: Citrobacter freundii, GN99; Cit. freundii GN 99; read-out: minimal inhibitory concentration
[7] = system: Citrobacter freundii GN 1706; assay: minimal inhibitory concentration against Cit. freundii GN 1706; format: cell-based; conditions: Citrobacter freundii, GN1706; Cit. freundii GN 1706; read-out: minimal inhibitory concentration
[8] = system: Enterobacter cloacae IFO 12937; assay: minimal inhibitory concentration against Ent. cloacae IFO 12937; format: cell-based; conditions: Enterobacter cloacae; Ent. cloacae IFO12937; read-out: minimum inhibitory concentration
E. coli = assay: protective effect on infected mice (intraperitoneal infection with E. coli); format: in vivo; conditions: Escherichia coli, 168 h, male mice ICR/SLC, 7 days observation
Source text: *Test animals: male mice (ICR/SLC) 5 mice per group per single
Infection: intraperitoneally with E. coli
Observation period: 7 days

Ps. aeruginosa Pd 1 = assay: minimal inhibitory concentration against Ps. aeruginosa Pd 1; format: cell-based; conditions: Pseudomonas aeruginosa, PD1
Ps. aeruginosa PM 3 = assay: minimal inhibitory concentration against Ps. aeruginosa PM 3; format: cell-based; conditions: Pseudomonas aeruginosa, PM3
Ps. aeruginosa P2 = assay: minimal inhibitory concentration against Ps. aeruginosa P2; format: cell-based; conditions: Pseudomonas aeruginosa
Ps. aeruginosa GN3407 = assay: minimal inhibitory concentration against Ps. aeruginosa GN3407; format: cell-based; conditions: Pseudomonas aeruginosa
Ent. cloacae TN1282 = assay: minimal inhibitory concentration against Ent. cloacae TN1282; format: cell-based; conditions: Enterobacter cloacae
[9] = system: Acinetobacter anitratus TN-1140; assay: minimal inhibitory concentration against Acinetobacter anitratus TN-1140; format: cell-based; conditions: Acinetobacter calcoaceticus, TN1140

Row | SMILES | MIC (E. coli NIHJ) | MIC (E. coli 0-111) | MIC (E. coli T-7) | MIC (Klebsiella pneumoniae DT) | MIC [1] | MIC [2] | MIC (Serratia TN 0024) | MIC [3] | MIC (P. vulgaris GN 4413) | MIC [4] | MIC [5] | MIC (P. rettgeri 8(TN0336)) | MIC (Proteus rettgeri GN 4733) | MIC [6] | MIC [7] | MIC [8] | ED50 (E. coli; subcutaneous (SC)) | also measured
1 | CO/N=C(\C(=O)NC1C(=O)N2C(C(=O)O)=C(CSc3nnc(C)s3)CSC12)c1csc(N)n1 (stereo not drawn) [(a), Sodium 7-[2-(2-aminothiazol-4-yl)-2-(syn)-methoxyiminoacetamido]-3-(2-methyl-1,3,4-thiadiazol-5-yl)thiomethyl-3-cephem-4-carboxylate] | 0.2 µg/mL | 0.1 µg/mL | 1.56 µg/mL | 0.05 µg/mL | 0.39 µg/mL | 0.78 µg/mL | 0.78 µg/mL | 0.1 µg/mL | 1.56 µg/mL | 0.2 µg/mL | 0.1 µg/mL | ≤ 0.012 µg/mL | 0.39 µg/mL | 0.2 µg/mL | 0.78 µg/mL | 3.13 µg/mL | – | –
2 | CO/N=C(\C(=O)NC1C(=O)N2C(C(=O)O)=C(CSc3nnnn3CCN(C)C)CSC12)c1csc(N)n1 (stereo not drawn) [(e), 7-[2-(2-Aminothiazol-4-yl)-2-(syn)-methoxyiminoacetamido]-3-[1-(2-N,N-dimethylaminoethyl)-1,2,3,4-tetrazol-5-yl]thiomethyl-3-cephem-4-carboxylic acid betaine] | 0.2 µg/mL (≈ 0.352 µM) | 0.024 µg/mL (≈ 0.0422 µM) | 1.56 µg/mL (≈ 2.74 µM) | 0.1 µg/mL (≈ 0.176 µM) | 0.2 µg/mL (≈ 0.352 µM) | 1.56 µg/mL (≈ 2.74 µM) | 0.78 µg/mL (≈ 1.37 µM) | 0.2 µg/mL (≈ 0.352 µM) | 1.56 µg/mL (≈ 2.74 µM) | 0.39 µg/mL (≈ 0.686 µM) | 0.2 µg/mL (≈ 0.352 µM) | 0.024 µg/mL (≈ 0.0422 µM) | 0.78 µg/mL (≈ 1.37 µM) | 0.2 µg/mL (≈ 0.352 µM) | 0.78 µg/mL (≈ 1.37 µM) | 6.25 µg/mL (≈ 11 µM) | – | –
3 | O=C(Cc1cccs1)N[C@@H]1C(=O)N2C(C(=O)[O-])=C(C[n+]3ccccc3)CS[C@H]12 [CER, cephaloridine, reference compound] | – | – | – | – | – | – | – | – | – | – | – | – | – | – | – | – | 1.25 mg/kg | –
4 | CC1=C(C(=O)O)N2C(=O)[C@@H](NC(=O)[C@H](N)c3ccccc3)[C@H]2SC1 [CEX, cephalexin, reference compound] | – | – | – | – | – | – | – | – | – | – | – | – | – | – | – | – | – | ED50 (E. coli; oral): 2.51 mg/kg
5 | CO/N=C(\C(=O)NC1C(=O)N2C(C(=O)O)=C(COC(N)=O)CSC12)c1csc(N)n1 (stereo not drawn) [Example 1, sodium 7-[2-(2-aminothiazol-4-yl)-2-(syn)-methoxyiminoacetamido]-3-carbamoyloxymethyl-3-cephem-4-carboxylate] | 0.1 µg/mL | 0.024 µg/mL | 0.39 µg/mL | < 0.012 µg/mL | 0.05 µg/mL | 1.56 µg/mL | 0.2 µg/mL | ≤ 0.02 µg/mL | 1.56 µg/mL | ≤ 0.02 µg/mL | 0.39 µg/mL | ≤ 0.012 µg/mL | 0.05 µg/mL | 0.2 µg/mL | 0.39 µg/mL | – | 0.015 mg/kg | MIC (Ps. aeruginosa Pd 1): 50 µg/mL; MIC (Ps. aeruginosa PM 3): 3.13 µg/mL; MIC (Ps. aeruginosa P2): 25 µg/mL; MIC (Ps. aeruginosa GN3407): > 100 µg/mL; MIC (Ent. cloacae TN1282): 6.25 µg/mL; MIC [9]: 6.25 µg/mL
